Where “and” joins values, the source holds several entries; their conditions need not be identical. Equal entries are not always repeated. Structures can show the parent of a compound that is named as a salt.
Tests used:
Type in all cases: physicochemical
[1] = Eosin Y coupling to amine groups of TMSPEA functionalised surface and release (absorbance at 517 nm)
Experimental: Once rinsing had been completed, the sample was placed in a 50 ml sample tube and 4 mls of 0.1 M NaOH was pipetted into it, the sample tube was placed on the Spiramix and it was rolled for—5 minutes. 20 mls of deionised water was then pipetted into the solution and the absorbance of the resulting solution was recorded at 517 nm using a spectrophotometer. The absorbance value was then converted into an amount of eosin Y attached to the sample by using a calibration graph of absorbance readings for known amounts of eosin Y sodium salt. The absorbance reading for the release solution was 0.83 at 517 nm corresponding to 205 μg of eosinY.
All six samples were placed in sample tubes (100*16 mm R. B. tubes clarified polypropylene, Jencons PLC) and rolled on the Spiramix (Denley Spiramix 5) in approximately 4-6 mls of a 0.4% aqueous solution of eosin Y sodium salt (Sigma Aldrich chemical co) for approximately 1 hour.
Once rinsing had been completed, two samples from the ethanol rinsed and unrinse, d sets were placed in 50 ml sample tubes and 4 mls of 0.1 M NaOH was pipetted into each. The sample tubes were placed on the Spiramix and rolled for—5 minutes. 20 mls of deionised water was then pipetted into each sample and the absorbance of the resulting solution was recorded at 517 nm using a Jenway 6305 W/V is spectrophotometer. The values recorded were then converted into amounts of eosin Y attached to the samples by using a calibration graph of absorbance readings for known amounts of eosin Y sodium salt.
After drying for 2 hours at 50° C. the sample was stained with Eosin Y solution, visually examined and then released as detailed in the Eosin Y Coupling section of Example 6.

[2] = Colchicine release from polymer coating into phosphate buffered saline (UV/Vis absorbance at 350 nm)
Source text: The stent was placed in a tube containing 4 mls of Phosphate Buffered Saline solution (prepared from tablets supplied by Sigma-Aldrich Chemical Co by dissolving 1 tablet in 200 mls of deionised water) and agitated by rolling. The saline solution was sampled at intervals and its colchicine content determined by monitoring its absorbance at 350 nm using UV/Vis Spectrometry. A calibration plot for various concentrations of Colchicine (4 to 99 micrograms) in solution against the solution's absorbance at 350 nm was constructed to convert sample's release absorbance into drug release values in micrograms per stent. The graph of Colchicine released against release time is plotted in FIG. 3.
1. Stainless steel strips approx 6-8 mm in width were cleaned in IPA with ultrasound for 15 mins, followed by drying at 130° C. for 30 mins 2. The plate was functionalised as in Example 2. 3. The amino group on the functionalised steel was then reacted with the ispcyano group of 3-(triethoxysilyl)isocyanate to form a urea linkage, yielding triethoxysilyl groups on the surface. This was performed by adding the stainless steel plate to a solution of 3-(triethoxysilyl) isocyanate (9 ml) in anhydrous toluene (219 ml). […] The colchicine was released by placing the strips in 4 mls of phosphate buffered saline (PBS) solution, placing on a spiromix and measuring the absorbance at 350 nm over a period of 100 hours 15. […]

[3] = Mitoxantrone coupling and release from coated device (absorbance of release solution at 660 nm)
[4] = as above; remark: listed apart in the source
Experimental: A 0.01% solution of mitoxantrone (Sigma Aldrich Chemical Co) was made up in deionised water. The samples are each immersed in 4 mls of the solution and left rolling on a Spiramix (Denley Spiramix 5) for—17 hours (Samples placed in 100*16 mm R. B. tube clarified polypropylene supplied by Jencons PLC.). After this time they were rinsed in deionised water until there was no evidence of the mitoxantrone being removed in the water. 4 mls of phosphate buffered saline solution (PBS) was then pipetted into a clean sample tube and the sample added. The samples were left in this solution for 1 hour on the Spiramix, after which absorbances were recorded by spectrophotometer at 660 nm. The solutions were then transferred back into the appropriate sample tube and 5 drops of 1M hydrochloric acid added from a dropping pipette. The samples were left for 10 minutes rolling on the Spiramix, after which an absorbance reading was recorded. Further readings were obtained after 1 hour or more to give a value for complete release of mitoxantrone. The absorbances recorded for the release solutions at 660 nm gave an indication of the amount of mitoxantrone attached to the carboxymethylcellulose coating on each sample. By use of a calibration curve plotting known concentrations of mitoxantrone solutions against the absorbance of the solution at 660 nm, the mitoxantrone concentration of the release solution was determined and from this the amount of mitoxantrone attached to each device. An absorbance of 0.09 at 660 nm was obtained for the 1 hour release in phosphate buffered saline solution, and an absorbance of 0.17 for the complete release of Mitoxantrone. This equates to approximately 31 micrograms of mitoxantrone attached to the stent.

[5] = Example 2: stent coupled with poly(acrylic acid) partial sodium salt, Mw 2000
[6] = Example 9: heat exchange tubes coupled with polyacrylic acid sodium salt, Mw ca. 30,000

## O=C1OC2(c3ccccc31)c1cc(Br)c(O)c(Br)c1Oc1c2cc(Br)c(O)c1Br [eosin Y, eosin Y sodium salt]
[1]; Example 6: TMSPEA functionalised tube (toluene, 30 minutes), calibration graph
  Eosin Y attached to the sample: 205 µg
[1]; Example 6: TMSPEA functionalised tube (toluene, 30 minutes), released in 0.1 M NaOH
  Absorbance of release solution at 517 nm: 0.83
[1]; Example 15: tube functionalised with TMSPEA in tetrahydrofuran instead of toluene
  Absorbance of release solution at 517 nm: 0.19

## COc1cc2c(c(OC)c1OC)-c1ccc(OC)c(=O)cc1[C@@H](NC(C)=O)CC2 [colchicine]
[2]; Coating of poly(vinyl butyral-co-vinyl alcohol-co-vinyl acetate) and colchicine without poly(ethylene glycol)
  Release of drug into phosphate buffered saline solution: does not release the drug into phosphate buffered saline solution
[2]; Example 14: strip coated with poly(vinyl butyral-co-vinyl alcohol-co-vinyl acetate) + poly(ethylene glycol) + colchicine, after 100 hours in PBS
  Total amount of drug released after sonication in 2-propanol: 320 u. g

## O=C1c2c(O)ccc(O)c2C(=O)c2c(NCCNCCO)ccc(NCCNCCO)c21 [mitoxantrone]
[3]; [5]
  Absorbance at 660 nm, released 10 minutes in PBS with 5 drops 1 M HCl: 0.037
  Mitoxantrone attached to the stent: 7 micrograms
[3]; Example 3: heparin coupled stainless steel heat exchange tubes
  Mitoxantrone attached to the heparin coated devices (complete release values): 31 micrograms and 36 micrograms
[3]; Example 7: commercially available stent, heparin/EDC Reaction Solution 1 of Example 6
  Mitoxantrone attachment of released stent: 9 micrograms
[3]; [6]
  Absorbance at 660 nm, complete release of mitoxantrone: 0.33
  Mitoxantrone corresponding to complete release absorbance: 60 micrograms
[4]; Example 1: CMC coupled stent, PBS + 1M HCl
  Absorbance at 660 nm, complete release of mitoxantrone: 0.17
[4]; Example 1: CMC coupled stent, from calibration curve
  Mitoxantrone attached to the stent: approximately 31 micrograms
[4]; Example 1: stainless steel stent, TMSPEA functionalised, carboxymethylcellulose coupled
  Absorbance at 660 nm, 1 hour release in phosphate buffered saline solution: 0.09
